Experimental data: patent EP3168211A1, “PHARMACEUTICAL CO-CRYSTALS OF NICLOSAMIDE” (Westfälische Wilhelms-Universität Münster, priority 2015, dated 2017)
Values after ≈ are worked out from the molar mass of the structure shown.

What was measured:
[1] = male Sprague-Dawley rats; cited from earlier work
physchem = conditions: 37 °C, aqueous with cosolvent or surfactant or cyclodextrin, thermodynamic from solid
[2] = for factor: equilibrium solubility relative to pristine NCL; for factor / Solubility at 37° C (24 h) in 40% isopropanol-water mixture: 37°C, 24 h, 40% isopropanol-water; for increase of the equilibrium solubility: result in words, versus pristine NCL; for Solubility at 37° C (24 h) in 40% isopropanol-water mixture: equilibrium solubility, shake-flask, sample normalized to 50 mg of NCL in 2.5 mL
[3] = solubility factor relative to NCL reported by P. Sanphui et al.; weights not normalized to the amount of NCL; cited from earlier work

| Molecule | factor [2] | increase of the equilibrium solubility [2] | Solubility at 37° C (24 h) in 40% isopropanol-water mixture [2] [µg/mL] | oral bioavailability [1] [%] | solubility at 24 h (physchem) [µg/mL] | factor* [3] |
| --- | --- | --- | --- | --- | --- | --- |
| O=C(Nc1ccc([N+](=O)[O-])cc1Cl)c1cc(Cl)ccc1O [NCL, 2',5-dichloro-4'-nitrosalicylanilide] | – | – | – | 10 | 87.2 (≈ 266 µM) | – |
| Niclosamide - acetamide [NCL-AA-I] | 1.4 | moderate increase | – | – | – | – |
| Niclosamide - isoniazide [NCL-IN] | – | moderate increase | – | – | – | – |

The next lines start with results.

| factor [2] | increase of the equilibrium solubility [2] | Solubility at 37° C (24 h) in 40% isopropanol-water mixture [2] [µg/mL] | Molecule | oral bioavailability [1] [%] | solubility at 24 h (physchem) [µg/mL] | factor* [3] |
| --- | --- | --- | --- | --- | --- | --- |
| 1.3 | – | 113.45 | Niclosamide - isonicotinamide [NCL-IA] | – | – | 1.7 |
| 1.3 | – | 114.45 | Niclosamide - nicotinamide [NCL-NA] | – | – | 1.2 |
